In patent US10537552B2, “Substituted 5-hydroxyoxindoles and their use as analgesics and fever reducers” (CARAFE DRUG INNOVATION, LLC, priority 2015, dated 2020):
“And” between values parts separate entries of the source, which are not always exact repeats. Equal values may be shown once.

What was measured:
[1] = tested on: liver (acute liver toxicity); assay: plasma aminotransferase activity (ALT, AST) after intragastric dosing; assay type: in vivo, C57BL/6 mice; conditions: for AST / ALT: individual mice 1-8; for ALT, Mean / AST, Mean: mean of 8 mice; for hepatotoxicity, overall assessment (ALT, AST, pathohistology): mice, intragastric, summary statement
Protocol: This example was performed to determine if acute liver toxicity results from oral administration of 5-hydroxy-7-methyloxindole (CaRafe Drug Innovation, LLC) compared to the known acute liver toxicity produced by acetaminophen.
Acetaminophen was acquired from Sigma-Aldrich Corp. (St. Louis, Mo., USA); 5-hydroxy-7-methyloxindole was provided by CaRafe Drug Innovation, LLC (Norristown, Pa., USA) in the form of a powder. […] Based on the efficacy testing performed at Drexel University, 5-hydroxy-7-methyloxindole was suspended in 6% Tween® 20 reagent with vortexing. This procedure provided a crude suspension, but it precipitated after some time, therefore vortexing was repeated prior to each injection. Acetaminophen was prepared in the same vehicle (6% Tween® 20 reagent) using light magnetic stirring.
Ten-week old male C57BL/6 mice were used in all of the experiments. All protocols were approved before study initiation by the Ethics Committee of University of Zagreb School of Medicine (Zagreb, Croatia) and the study was conducted in accordance with accepted standards of humane animal care.
(§1) In all experiments, mice were fasted overnight and then allocated randomly to receive either acetaminophen or equimolar dose of 5-hydroxy-7-methyloxindole by the intragastric route. Food was returned 4 h after the treatment. The two experimental groups were:
(§2) (a) Lower-dose group: Mice were administered acetaminophen (300 mg/kg) or 5-hydroxy-7-methyloxindole (324 mg/kg). After 7 h, the mice were sacrificed and liver and blood samples were taken for the analysis.
(§3) Seven hours after receiving the second injection, mice were sacrificed and liver and blood samples were taken for analysis.
After collection, the blood samples were centrifuged, and plasma was separated and stored at −80° C. for 24 h. Activities of ALT (alanine transaminase) and of AST (aspartate transaminase) in plasma were determined using standard laboratory techniques in a clinical diagnostic laboratory.

[2] = target: T1, COX1 (h) (Homo sapiens, UniProt P23219); assay: COX1 enzyme assay; assay type: biochemical
T1 construct: host or cells: Sf9 cells
T1 sequence (P23219 24-599): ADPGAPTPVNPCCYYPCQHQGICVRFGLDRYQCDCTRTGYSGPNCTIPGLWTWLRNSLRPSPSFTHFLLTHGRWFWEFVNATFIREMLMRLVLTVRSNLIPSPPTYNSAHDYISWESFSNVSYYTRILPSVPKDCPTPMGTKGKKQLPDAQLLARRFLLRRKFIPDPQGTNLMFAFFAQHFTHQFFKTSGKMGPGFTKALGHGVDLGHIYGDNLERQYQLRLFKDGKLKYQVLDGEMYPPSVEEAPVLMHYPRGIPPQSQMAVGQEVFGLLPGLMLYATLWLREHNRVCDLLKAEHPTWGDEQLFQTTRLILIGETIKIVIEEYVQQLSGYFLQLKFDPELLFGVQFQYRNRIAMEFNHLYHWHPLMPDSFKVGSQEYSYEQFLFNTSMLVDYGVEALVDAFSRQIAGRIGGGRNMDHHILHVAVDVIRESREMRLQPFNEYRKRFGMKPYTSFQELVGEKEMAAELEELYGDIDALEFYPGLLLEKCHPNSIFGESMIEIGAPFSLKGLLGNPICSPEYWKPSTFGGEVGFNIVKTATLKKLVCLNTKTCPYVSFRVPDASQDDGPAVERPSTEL
Protocol: (§4) The assay was performed according to the procedure described in Glaser, European Journal of Pharmacology, 281:107-111, 1995, which is incorporated by reference. Recombinant enzymes were reconstituted in buffer. The enzyme preparations were preincubated with DMSO vehicle or compounds in DMSO for 5 min at 37° C. and the human recombinant enzyme expressed in Sf9 cells.
(§5) An inhibition greater than about 50% represented significant effects of the test compound. An inhibition of about 25% to about 50% was indicative of weak to moderate effects. An inhibition less than about 25% are not considered significant and may be primarily attributable to variability of the signal around the control level.

[3] = target: T2, COX2 (h) (Homo sapiens, UniProt P35354); assay: COX2 enzyme assay; assay type: biochemical
T2 construct: host or cells: Sf9 cells
T2 sequence (P35354 18-604): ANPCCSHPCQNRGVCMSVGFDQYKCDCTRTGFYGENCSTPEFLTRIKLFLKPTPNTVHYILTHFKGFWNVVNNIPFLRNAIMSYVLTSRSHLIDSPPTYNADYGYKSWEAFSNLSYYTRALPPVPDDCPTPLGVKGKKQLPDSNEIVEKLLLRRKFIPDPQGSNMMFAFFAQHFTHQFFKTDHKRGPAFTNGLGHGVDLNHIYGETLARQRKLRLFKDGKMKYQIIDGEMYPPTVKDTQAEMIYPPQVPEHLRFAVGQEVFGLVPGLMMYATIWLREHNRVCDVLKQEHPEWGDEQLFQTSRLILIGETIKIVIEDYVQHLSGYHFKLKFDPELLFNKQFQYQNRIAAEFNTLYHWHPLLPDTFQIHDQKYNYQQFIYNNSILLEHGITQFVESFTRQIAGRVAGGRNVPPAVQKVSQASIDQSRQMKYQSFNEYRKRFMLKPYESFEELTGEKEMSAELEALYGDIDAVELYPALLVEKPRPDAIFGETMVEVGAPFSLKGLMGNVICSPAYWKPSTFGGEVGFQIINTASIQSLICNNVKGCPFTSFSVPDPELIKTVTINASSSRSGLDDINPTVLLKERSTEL
Protocol: as §4, §5

[4] = solubility observed when preparing dosing vehicle; assay type: physicochemical
Protocol: Acetaminophen was acquired from Sigma-Aldrich Corp. (St. Louis, Mo., USA); 5-hydroxy-7-methyloxindole was provided by CaRafe Drug Innovation, LLC (Norristown, Pa., USA) in the form of a powder. […] […] This procedure provided a crude suspension, but it precipitated after some time, therefore vortexing was repeated prior to each injection. Acetaminophen was prepared in the same vehicle (6% Tween® 20 reagent) using light magnetic stirring.

[5] = tested on: liver (acute liver toxicity); assay: liver histology (pathohistological examination); assay type: in vivo, C57BL/6 mice
Protocol: as §1, §2, §3
A portion of the liver lobes of each mouse was fixed in 4% buffered paraformaldehyde, dehydrated in increasing concentrations of ethanol, and embedded in paraffin. Then, sections of tissue were cut to […] thickness using a rotary microtome, stained with hematoxylin and eosin, and then analyzed under a microscope.

[6] = higher-dose protocol: two cumulative injections 2.5 h apart, 7 h after second injection
[7] = lower-dose protocol: acetaminophen 300 mg/kg or 5-hydroxy-7-methyloxindole 324 mg/kg, 7 h
[8] = 5-hydroxy-7-methyloxindole 324 mg/kg intragastric, 7 h
[9] = test concentration 1 × 10^−5 M, human recombinant enzyme expressed in Sf9 cells

Compound: Cc1cc(O)cc2c1NC(=O)C2 [5-hydroxy-7-methyloxindole, 5-Hydroxy-7-methyloxindole]
- ALT and AST levels, in words [1, 6]: normal or only minimally elevated levels of ALT and AST
- AST ([1]; 5-hydroxy-7-methyloxindole 324 mg/kg intragastric, 7 h after treatment): 80 U/L (2×) and 60 U/L (2×) and 120 U/L and 330 U/L and 170 U/L and 90 U/L
- ALT ([1]; 5-hydroxy-7-methyloxindole 324 mg/kg intragastric, 7 h after treatment, 6% Tween 20): 30 U/L (5×) and 20 U/L and 50 U/L (2×)
- AST ([1]; 5-hydroxy-7-methyloxindole 540 mg/kg total (two 270 mg/kg) intragastric, 7 h after second injection): 60 (2×) and 120 (3×) and 100 and 70 and 110
- ALT ([1]; 5-hydroxy-7-methyloxindole 540 mg/kg total (two 270 mg/kg, 2.5 h apart) intragastric, 7 h after second injection): 20 (3×) and 30 (3×) and 50 (2×)
- ALT and AST levels / liver damage, in words [1, 7]: normal or only minimally elevated
- ALT, Mean [1, 8]: 34 U/L
- AST, Mean [1, 8]: 124 U/L
- AST, Mean ([1]; 5-hydroxy-7-methyloxindole 540 mg/kg total, 7 h after second injection): 95 U/L
- ALT, Mean ([1]; 5-hydroxy-7-methyloxindole 540 mg/kg total, 7 h after second injection, in U/L): 31.25
- hepatotoxicity, overall assessment (ALT, AST, pathohistology) ([1]; 6% Tween 20): devoid of hepatotoxic effect
- hepatotoxicity, overall assessment (ALT, AST, pathohistology) ([1]; 6% Tween 20, listed as 5-Hydroxy-7-methyloxindole): significantly less hepatotoxicity than acetaminophen
- binding to COX1 receptor, in words [2]: binds minimally, if at all
- inhibition at 10 µM [2, 9]: -29%
- binding to COX2 receptor, in words [3]: binds minimally, if at all
- inhibition at 10 µM [3, 9]: -6.8%
- solubility ([4]; general statement): low solubility
- solubility in saline ([4]; saline, for dosing): not sufficiently soluble
- liver injury on pathohistological examination [5, 6]: without visible liver injury
- liver injury on pathohistological examination [5, 7]: no visible sign of liver injury
